Data reported in patent publication US7317115B2, “Mandelates salts of substituted tetracyclic tetrahydrofuran derivatives” (Janssen Pharmaceutica, N.V., priority 2001, dated 2008).
Entries after “also recorded” stand apart in the source; their conditions may differ.

Key:
Assay type in all cases: physicochemical
[1] = Adsorption and desorption of water; settings: 25° C., different relative humidity; listed as citrate salt
Experimental: The adsorption and desorption of water at 25° C. at different conditions of relative humidity is investigated on an amount of ±10 mg of each salt. The weight change as a function of relative humidity is registered.

[2] = Crystallographic stability (TGA, DSC, IR after storage)
Experimental: The stability of the crystal structure of the salt is studied after storage of the compounds for a period of two weeks at room temperature (RT) under either 5%, 75% and 25° C./60% relative humidity (RH). The samples are analyzed with thermogravimetry (TGA), differential scanning calorimetry (DSC) and infrared spectroscopy (IR).

[3] = Chemical stability (HPLC and visual inspection after storage); settings: for HPLC Sum of impurities: in % (unit assumed)
Experimental: In the chemical stability test program the salts are stored for periods of 2, 4 and 8 weeks under different conditions. These conditions are 40° C./75% RH, 50° C., daylight, RT/5% RH, RT/75% RH, 25° C./60% RH and artificial light. The mandelate salt and the ditoluoyltartrate salt are also stored 8 hours in 0.3 da ICH light. The compounds are analyzed after storage by HPLC and by visual inspection.

## B-(2α,3aα,12bβ)-11-fluoro-3,3a,8,12b-tetrahydro-N-methyl-2H-dibenzo-[3,4:6,7]cyclohepta[1,2-b]furan-2 methanamine [Citrate]
[1]
  water adsorption/desorption behaviour (weight change as a function of relative humidity): hygroscopic and liquefies at high relative humidity
[2]; 0 days
  Appearance: yellowish
  DSC Max: amorphous
[2]; storage two weeks under different relative humidities, listed as citrate salt
  crystallographic stability: amorphous and liquefies at RT/75% RH
[2]; two weeks, RT/75% RH
  Appearance: liquefied
[3]; 40° C./75% RH, 2 weeks
  Appearance: liquefied
  HPLC Sum of impurities: 4.83
[3]; 40° C./75% RH, 4 weeks
  Appearance: liquefied
  HPLC Sum of impurities: 7.91
[3]; 40° C./75% RH, 8 weeks
  Appearance: liquefied
  HPLC Sum of impurities: 10.62
[3]; 50° C., 2 weeks
  Appearance: ochre-
  HPLC Sum of impurities: 6.29
[3]; 50° C., 4 weeks
  Appearance: ochre-
  HPLC Sum of impurities: 7.47
[3]; 50° C., 8 weeks
  Appearance: orange-
  HPLC Sum of impurities: 9.07
[3]; Artificial light (2 weeks)
  Appearance: ochre-
  HPLC Sum of impurities: 8.99
[3]; Daylight, 2 weeks
  Appearance: ochre-
  HPLC Sum of impurities: 5.81
[3]; Daylight, 4 weeks
  Appearance: ochre-
  HPLC Sum of impurities: 5.99
[3]; Daylight, 8 weeks
  Appearance: orange-
  HPLC Sum of impurities: 6.31
[3]; RT/75% RH, 4 weeks
  Appearance: liquefied
  HPLC Sum of impurities: 4.69
[3]; RT/75% RH, 8 weeks
  Appearance: liquefied
  HPLC Sum of impurities: 4.98
[3]; Reference (2 weeks)
  Appearance: yellow
  HPLC Sum of impurities: 4.76
[3]; storage 2, 4 and 8 weeks under different conditions, listed as citrate salt
  chemical stability: shows degradation in all investigated conditions; also recorded: chemically not stable
